# Test results as given in US8741894B2, “Arylsulfonamide CCR3 antagonists” (Axikin Pharmaceuticals, Inc., priority 2010, dated 2014).
# How the values were obtained:
# hERG channel = target: T1, hERG channel (Homo sapiens, UniProt Q12809); experiment: hERG Receptor Binding Assay (125I-BeKm-1, membranes from HEK-293 cells containing transfected hERG channels); settings: 125I-BeKm-1 0.1 nM final, 1 hr at room temperature
# T1 construct: purchased Perkin Elmer RBHERGM400UA; host or cells: HEK-293 cells transfected with hERG (membrane preparation)
# T1 sequence (Q12809 whole entry): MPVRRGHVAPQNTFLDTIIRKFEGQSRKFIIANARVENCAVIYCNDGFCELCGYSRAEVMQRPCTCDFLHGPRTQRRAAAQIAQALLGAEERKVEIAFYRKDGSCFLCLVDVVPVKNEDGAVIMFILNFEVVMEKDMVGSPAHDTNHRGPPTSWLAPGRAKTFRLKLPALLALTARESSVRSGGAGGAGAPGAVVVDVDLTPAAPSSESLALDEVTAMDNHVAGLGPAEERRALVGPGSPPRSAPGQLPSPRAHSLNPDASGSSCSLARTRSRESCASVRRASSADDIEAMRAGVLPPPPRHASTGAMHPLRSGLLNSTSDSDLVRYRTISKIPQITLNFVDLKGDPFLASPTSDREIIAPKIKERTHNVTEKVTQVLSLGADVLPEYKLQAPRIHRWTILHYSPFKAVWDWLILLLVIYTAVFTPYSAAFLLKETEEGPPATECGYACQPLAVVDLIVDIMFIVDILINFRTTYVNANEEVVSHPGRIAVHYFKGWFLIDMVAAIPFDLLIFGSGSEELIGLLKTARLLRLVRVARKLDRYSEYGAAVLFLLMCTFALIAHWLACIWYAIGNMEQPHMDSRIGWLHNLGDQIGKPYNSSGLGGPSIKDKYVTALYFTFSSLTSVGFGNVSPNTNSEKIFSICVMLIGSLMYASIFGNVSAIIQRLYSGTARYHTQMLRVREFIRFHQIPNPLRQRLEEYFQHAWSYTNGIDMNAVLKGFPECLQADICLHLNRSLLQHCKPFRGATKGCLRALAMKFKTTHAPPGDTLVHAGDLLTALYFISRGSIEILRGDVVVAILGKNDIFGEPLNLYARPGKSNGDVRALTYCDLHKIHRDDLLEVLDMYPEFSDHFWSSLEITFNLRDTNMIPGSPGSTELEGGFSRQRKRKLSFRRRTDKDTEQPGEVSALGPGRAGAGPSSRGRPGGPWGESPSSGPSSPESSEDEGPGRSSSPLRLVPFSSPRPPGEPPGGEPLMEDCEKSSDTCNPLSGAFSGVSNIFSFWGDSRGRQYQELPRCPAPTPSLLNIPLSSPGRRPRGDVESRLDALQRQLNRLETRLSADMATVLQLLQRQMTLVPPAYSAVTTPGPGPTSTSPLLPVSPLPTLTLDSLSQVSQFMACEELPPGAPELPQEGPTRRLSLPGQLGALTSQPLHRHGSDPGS
# Method: Medium throughput screening of compounds for interaction with the human Ether-a-go-go related gene (hERG) was performed by modification of equilibrium dissociation assays using 125I-labelled peptide BeKm-1. BeKm-1, a scorpion toxin from the Central Asian scorpion Buthus eupeus, selectively blocks the hERG channel. Angelo, K., et al., 2003, Pflugers Arch.-Eur. J. Physiol., 447: 55-63; Chiu, P J S, et al., J. Pharmacol. Sci., 2004, 95: 311-319. Isolated membrane preparations from HEK-293 cells containing transfected hERG channels (hERG K+ Channel Membrane Target Systems™; Cat #, RBHERGM400UA) (Perkin Elmer, Boston, Mass.) were suspended in assay buffer A at a final concentration of 1:150 v/v. Compounds for screening, and non-radiolabelled BeKm-1, as well as 125I-BeKm-1 radioligand (Perkin Elmer; Cat #, NEX-412; Specific Activity 2,200 Ci/mmol), were also reconstituted in Buffer A. Assay components were incubated in 96-well, round-bottom polypropylene plates in the following ratio:
# 25 μl compound at appropriate concentrations
# 25 μl radiolabelled BeKm-1 at 0.8 nM (final concentration of 0.1 nM)
# 150 μl membrane preparation
# The assay was incubated with shaking for 1 hr at room temperature. Subsequently, the well contents were transferred to 96-well filtration plates (GF/C multiwell plates (MultiScreen™ HTS; Millipore, 290 Concord Road, Billerica, Mass. 01821 USA; Cat# MSFBN6B-XX pre-soaked in 0.3% polyethyleneimine; Acros Organics, NJ; Cat#178571000). Unbound radioactivity was removed and the membranes washed 4 times with ice-cold Buffer B, under vacuum. Plates were air-dried and bound radioactivity counted on a Packard Top-Count NXT™ microplate scintillation and luminescence counter (Packard Instrument Co., Downers Grove, Ill.). Equilibrium dissociation was analyzed and IC50 and/or Ki values were calculated using GraphPad Prism 4™ software (GraphPad Software, San Diego, Calif.).
# Assay Buffer A: ([…] (MP Biomedicals, LLC; 29525 Fountain Parkway, Solon Ohio, 441389; Cat #1688449) in water, pH 7.2 with 1M Tris (Fisher Chemicals, Fair Lawn, N.J. 07410; Cat #, BP-1757-500); 100 μM KCl (Fisher Chemicals, Cat #, BP-366-500); 0.1% BSA (Sigma Aldrich, 3050 Spruce Street, St. Louis, Mo. 63103; Cat #, A3059). Assay Buffer B: 20 mM Tris HCl, pH 7.3; 150 mM NaCl (Fisher Chemicals; Cat #, S78449).
# The hERG binding assay results are summarized in Table 2, wherein A represents no measured activity (i.e., a value greater than 100 μM), and B represents a value greater than 10 μM but less than 100 μM and C represents a value less than 10 μM.
# CCR3 receptor = target: T2, CCR3 receptor (UniProt P51677); experiment: CCR3 Receptor Binding Assay ([125I]-labeled human eotaxin/CCL11 displacement on cells); settings: 0.1 nM [125I]-labeled human eotaxin/CCL11, 60 min at room temperature
# T2 sequence (P51677 1-355): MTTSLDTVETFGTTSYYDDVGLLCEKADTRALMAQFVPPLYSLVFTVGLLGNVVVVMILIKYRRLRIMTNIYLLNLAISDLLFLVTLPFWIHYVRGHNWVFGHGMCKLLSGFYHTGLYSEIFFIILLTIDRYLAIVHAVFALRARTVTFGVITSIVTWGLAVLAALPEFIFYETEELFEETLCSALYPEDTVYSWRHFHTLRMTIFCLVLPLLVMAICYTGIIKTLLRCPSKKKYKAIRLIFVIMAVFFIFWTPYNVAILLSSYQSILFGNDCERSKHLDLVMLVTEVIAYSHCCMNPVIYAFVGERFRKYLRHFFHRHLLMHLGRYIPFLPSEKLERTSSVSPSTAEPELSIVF
# Method: Cells were washed once with PBS and resuspended in a binding buffer (25 mM HEPES pH 7.6, 5 mM MgCl2, 1 mM CaCl2, 0.5% BSA, 0.1% NaN3). […] of cell suspension (2×10^5 cells/well) and 0.1 nM [^125I]-labeled human eotaxin/CCL11 (2000 Ci/mmol specific activity) were mixed in a 96-well U-bottom polypropylene plate, and incubated for 60 min at room temperature for the binding reaction. The cell suspension was then transferred to a filtration plate (#MAFB, Millipore), and washed 3 times with the binding buffer containing 0.5 M NaCl, scintillant added, and the radioactivity was counted on a TopCount (Packard). For the determination of non-specific binding, the cell suspension and [^125I]-labeled human eotaxin/CCL11 were incubated in the presence of 500 nM of unlabeled human eotaxin/CCL11. See, lino et al., “Molecular cloning and functional characterization of cynomolgus monkey (Macaca fascicularis) CC chemokine receptor, CCR3,” Cytokine 2002, 19, 276-286.
# The biological results are summarized in Table 1, wherein A represents a value no greater than 50 nM, and B represents a value greater than 50 nM but no greater than 500 nM, C represents a value greater than 500 nM but no greater than 5 μM; and D represents a value greater than 5 μM.
smiles,measurement,setting,value
"N#Cc1ccc(Oc2cc(Cl)cc(Cl)c2)c(S(=O)(=O)N2CCC(NC(=O)NCc3ccco3)CC2)c1 [Compound 16, 1-(1-(5-cyano-2-(3,5-dichlorophenoxy)phenylsulfonyl)piperidin-4-yl)-3-(furan-2-ylmethyl)urea]",Ki,hERG channel,> 100 µM
"N#Cc1ccc(Oc2cc(Cl)cc(Cl)c2)c(S(=O)(=O)N2CCC(NC(=O)NCCN3CCSCC3)CC2)c1 [Compound 47, 1-(1-(5-cyano-2-(3,5-dichlorophenoxy)phenylsulfonyl)piperidin-4-yl)-3-(2-thiomorpholinoethyl)urea]",Ki,CCR3 receptor,≤ 50 nM
N#Cc1ccc(Oc2cc(Cl)cc(Cl)c2)c(S(=O)(=O)NC2CCN(C(=O)c3ccc(C(F)(F)F)cc3)CC2)c1 [Compound 34],Ki,CCR3 receptor,> 5000 nM
Cc1cc(C)cc(Oc2ccc(C#N)cc2S(=O)(=O)NC2CCN(S(C)(=O)=O)CC2)c1 [Compound 37],Ki,CCR3 receptor,> 5000 nM
N#Cc1ccc(Oc2cc(Cl)cc(Cl)c2)c(S(=O)(=O)NC2CCN(C(=O)c3ccccc3)CC2)c1 [Compound 35],Ki,CCR3 receptor,> 5000 nM
"CC(C)NC(=S)NC1CCN(S(=O)(=O)c2cc(C#N)ccc2Oc2cc(Cl)cc(Cl)c2)CC1 [Compound 17, 1-(1-(5-cyano-2-(3,5-dichlorophenoxy)phenylsulfonyl)piperidin-4-yl)-3-isopropylthiourea]",Ki,hERG channel,> 100 µM
"CSCCCNC(=S)NC1CCN(S(=O)(=O)c2cc(C#N)ccc2Oc2cc(Cl)cc(Cl)c2)CC1 [Compound 18, 1-(1-(5-cyano-2-(3,5-dichlorophenoxy)phenylsulfonyl)piperidin-4-yl)-3-(3-(methylthio)propyl)thiourea]",Ki,hERG channel,> 100 µM
"N#Cc1ccc(Oc2cc(Cl)cc(Cl)c2)c(S(=O)(=O)N2CCC(NC(=O)NCCN3CCCCC3)CC2)c1 [Compound 48, 1-(1-(5-cyano-2-(3,5-dichlorophenoxy)phenylsulfonyl)piperidin-4-yl)-3-(2-(piperidin-1-yl)ethyl)urea]",Ki,CCR3 receptor,≤ 50 nM
"C=CCNC(=O)NC1CCN(S(=O)(=O)c2cc(C#N)ccc2Oc2cc(Cl)cc(Cl)c2)CC1 [Compound 13, 1-allyl-3-(1-(5-cyano-2-(3,5-dichlorophenoxy)phenylsulfonyl)piperidin-4-yl)urea]",Ki,hERG channel,> 100 µM
"CC(C)NC(=O)NC1CCN(S(=O)(=O)c2cc(C#N)ccc2Oc2cc(Cl)cc(Cl)c2)CC1 [Compound 12, 1-(1-(5-cyano-2-(3,5-dichlorophenoxy)phenylsulfonyl)piperidin-4-yl)-3-isopropylurea]",Ki,hERG channel,> 100 µM
"N#Cc1ccc(Oc2cc(Cl)cc(Cl)c2)c(S(=O)(=O)N2CCC(NC(=O)CCCCl)CC2)c1 [Compound 8, 4-chloro-N-(1-(5-cyano-2-(3,5-dichlorophenoxy)phenylsulfonyl)piperidin-4-yl)butanamide]",Ki,hERG channel,> 100 µM
N#Cc1ccc(Oc2cc(Cl)cc(Cl)c2)c(S(=O)(=O)NC2CCN(C(=O)Nc3cccc(F)c3)CC2)c1 [Compound 44],Ki,CCR3 receptor,50 to 500 nM
"CC(=O)NC1CCN(S(=O)(=O)c2cc(C#N)ccc2Oc2cc(Cl)cc(Cl)c2)CC1 [Compound 5, N-(1-(5-cyano-2-(3,5-dichlorophenoxy)phenylsulfonyl)piperidin-4-yl)acetamide]",Ki,hERG channel,> 100 µM
"N#Cc1ccc(Oc2cc(Cl)cc(Cl)c2)c(S(=O)(=O)N2CCC(NC(=O)NCCN3CCOCC3)CC2)c1 [Compound 22, 1-(1-(5-cyano-2-(3,5-dichlorophenoxy)phenylsulfonyl)piperidin-4-yl)-3-(2-morpholinoethyl)urea]",Ki,CCR3 receptor,≤ 50 nM
CC(C)C(=O)N1CCC(NS(=O)(=O)c2cc(C#N)ccc2Oc2cc(Cl)cc(Cl)c2)CC1 [Compound 39],Ki,CCR3 receptor,> 5000 nM
"Cc1ccc(S(=O)(=O)N2CCC(NS(=O)(=O)c3cc(C#N)ccc3Oc3cc(C)cc(C)c3)CC2)cc1 [Compound 31, 5-cyano-2-(3,5-dimethylphenoxy)-N-(1-tosylpiperidin-4-yl)benzenesulfonamide]",Ki,CCR3 receptor,> 5000 nM
"N#Cc1ccc(Oc2cc(Cl)cc(Cl)c2)c(S(=O)(=O)NC2CCN(S(=O)(=O)c3cccc(F)c3)CC2)c1 [Compound 32, 5-cyano-2-(3,5-dichlorophenoxy)-N-(1-(3-fluorophenylsulfonyl)piperidin-4-yl)benzenesulfonamide]",Ki,CCR3 receptor,> 5000 nM
Cc1cc(C)cc(Sc2ccc(C#N)cc2S(=O)(=O)NC2CCN(C(=O)OC(C)(C)C)CC2)c1 [Compound 23],Ki,CCR3 receptor,500 to 5000 nM
"N#Cc1ccc(Oc2cc(Cl)cc(Cl)c2)c(S(=O)(=O)N2CCC(NC(=O)NCCN3CCNCC3)CC2)c1 [Compound 49, 1-(1-(5-cyano-2-(3,5-dichlorophenoxy)phenylsulfonyl)piperidin-4-yl)-3-(2-(piperazin-1-yl)ethyl)urea]",Ki,CCR3 receptor,≤ 50 nM
"[2H]c1c([2H])c(Oc2cc(Cl)cc(Cl)c2)c(S(=O)(=O)N2CCC(NC(=O)NCCN3C([2H])([2H])C([2H])([2H])OC([2H])([2H])C3([2H])[2H])CC2)c([2H])c1C#N [Compound 54, 1-(1-(5-cyano-3,4,6-trideutero-2-(3,5-dichlorophenoxy)phenylsulfonyl)piperidin-4-yl)-3-(2-(2,2,3,3,5,5,6,6-octadeutero-morpholino)ethyl)urea]",Ki,CCR3 receptor,≤ 50 nM
"Cc1ccc(C(=O)NC2CCN(S(=O)(=O)c3cc(C#N)ccc3Oc3cc(Cl)cc(Cl)c3)CC2)cc1 [Compound 10, N-(1-(5-cyano-2-(3,5-dichlorophenoxy)phenylsulfonyl)piperidin-4-yl)-4-methylbenzamide]",Ki,hERG channel,> 100 µM
"[2H]c1c([2H])c(Oc2cc(Cl)cc(Cl)c2)c(S(=O)(=O)N2CCC(NC(=O)NCC=C)CC2)c([2H])c1C#N [Compound 53, 1-allyl-3-(1-(5-cyano-3,4,6-trideutero-2-(3,5-dichlorophenoxy)phenylsulfonyl)piperidin-4-yl)urea]",Ki,CCR3 receptor,≤ 50 nM
"N#Cc1ccc(Oc2cc(Cl)cc(Cl)c2)c(S(=O)(=O)N2CCC(NC(=O)NCCN3CCC(F)CC3)CC2)c1 [Compound 50, 1-(1-(5-cyano-2-(3,5-dichlorophenoxy)phenylsulfonyl)piperidin-4-yl)-3-(2-(4-fluoropiperidin-1-yl)ethyl)urea]",Ki,CCR3 receptor,≤ 50 nM
CC(C)(C)OC(=O)N1CCC(NS(=O)(=O)c2cc(C#N)ccc2Sc2cc(Cl)cc(Cl)c2)CC1 [Compound 45],Ki,CCR3 receptor,500 to 5000 nM
"CN1CCN(CCNC(=O)NC2CCN(S(=O)(=O)c3cc(C#N)ccc3Oc3cc(Cl)cc(Cl)c3)CC2)CC1 [Compound 51, 1-(1-(5-cyano-2-(3,5-dichlorophenoxy)phenylsulfonyl)piperidin-4-yl)-3-(2-(4-methylpiperazin-1-yl)ethyl)urea]",Ki,CCR3 receptor,≤ 50 nM
"N#Cc1ccc(Oc2cc(Cl)cc(Cl)c2)c(S(=O)(=O)N2CCC(NC(=O)c3cccc(F)c3)CC2)c1 [Compound 11, N-(1-(5-cyano-2-(3,5-dichlorophenoxy)phenylsulfonyl)piperidin-4-yl)-3-fluorobenzamide]",Ki,hERG channel,> 100 µM
